# Test results as given in patent US10894775B2, “Piperidine derivatives as liver X receptor beta agonists, compositions, and their use” (Merck Sharp & Dohme Corp., priority 2016, dated 2021).
# Where two headings read alike, the source gives them in different places.
# Assays:
# [1] = molecular target: T1, glutathione-S-transferase (GST) tagged LXRbeta LBD (ligand binding domain) (Homo sapiens, UniProt P55055); test: LanthaScreen TR-FRET Liver X Receptor Coactivator Assay, LXR beta; type: biochemical; details: for Emax: read-out: LXR beta actiivty at max dose (%); for EC50: potency (Inflection Point) of compound-induced co-activator recruitment, TR-FRET
# T1 construct: purchased Invitrogen pv4658.pps
# T1 sequence (P55055 222-460 limits assumed): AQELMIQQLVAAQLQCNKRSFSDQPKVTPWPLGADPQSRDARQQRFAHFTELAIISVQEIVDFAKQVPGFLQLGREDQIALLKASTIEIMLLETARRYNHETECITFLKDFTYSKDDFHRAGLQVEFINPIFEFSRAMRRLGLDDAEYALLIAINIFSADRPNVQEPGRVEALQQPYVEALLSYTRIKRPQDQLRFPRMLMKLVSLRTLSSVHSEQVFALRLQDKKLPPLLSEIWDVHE
# Method: (§1) While running the LanthaScreen™ TR-FRET Liver X Receptor Coactivator Assay, LXR alpha-LBD or LXR beta-LBD was added to ligand test compounds followed by addition of a mixture of a fluorescein-labelled coactivator peptide and terbium-conjugated anti-GST antibody. After an incubation period at room temperature, TR-FRET (time-resolved fluorescence resonance energy transfer) was measured using a filter-based instrument capable of TR-FRET, e.g. PerkinElmer Envision.
# [2] = molecular target: T2, glutathione-S-transferase (GST) tagged LXRalpha LBD (ligand binding domain) (Homo sapiens, UniProt Q13133); test: LanthaScreen TR-FRET Liver X Receptor Coactivator Assay, LXR alpha; type: biochemical; details: for Emax: read-out: LXR alpha actiivty at max dose (%); for EC50 / LXR alpha IP (nM): potency (Inflection Point) of compound-induced co-activator recruitment, TR-FRET
# T2 construct: purchased Invitrogen pv4655
# T2 sequence (Q13133 209-447 limits assumed): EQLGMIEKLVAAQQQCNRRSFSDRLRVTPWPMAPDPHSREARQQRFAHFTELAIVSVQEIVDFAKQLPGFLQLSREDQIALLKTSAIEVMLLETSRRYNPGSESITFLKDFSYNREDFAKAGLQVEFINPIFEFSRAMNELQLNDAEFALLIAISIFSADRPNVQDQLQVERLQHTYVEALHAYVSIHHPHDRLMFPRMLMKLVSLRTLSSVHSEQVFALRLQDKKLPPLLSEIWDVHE
# Method: as §1
# [3] = efficacy (Emax) in relation to reference dual agonist T0901317
"Emax [1, 3]",EC50 ([1]; read-out: LXR beta IP),"Emax [2, 3]",EC50 ([2]; read-out: LXR alpha IP),LXR alpha IP (nM) [2],"LXR alpha actiivty at max dose (%) [2, 3]","LXR beta actiivty at max dose (%) [1, 3]",Structure (SMILES),Emax [1],EC50 ([2]; LXR alpha IP (nM)),Emax [2],EC50 ([1]; LXR beta IP (nM))
128%,25 nM,35%,395 nM,,,,"CN(C)C(=O)c1ccc(CCC[C@H]2CC23CCN(C(=O)[C@](O)(c2ccccc2)C(F)(F)F)CC3)cc1Cl (single isomer, unassigned) [Example 17-2, 2-chloro-N,N-dimethyl-4-(3-((S or R)-6-((R or S)-3,3,3-trifluoro-2-hydroxy-2-phenylpropanoyl)-6-azaspiro[2.5]octan-1-yl)propyl)benzamide]",,,,
60%,21 nM,64%,869 nM,,,,"CNC(=O)c1ccc(NCCC[C@@H]2CC23CCN(C(=O)[C@](O)(C(C)C)C(F)(F)F)CC3)cc1Cl (single isomer, unassigned) [Example 6-9, 2-chloro-4-(3-((R or S)-6-((R or S)-2-hydroxy-3-methyl-2-(trifluoromethyl)butanoyl)-6-azaspiro[2.5]octan-1-yl)propylamino)-N-methylbenzamide]",,,,
57%,1990 nM,2%,,No IP,,,"CN(C)C(=O)c1ccc(S(=O)(=O)CCCCC2CCN(C(=O)C(C)(C)c3ccccc3)CC2)cc1Cl [Example 22-1, 2-chloro-N,N-dimethyl-4-(4-(1-(2-methyl-2-phenylpropanoyl)piperidin-4-yl)butylsulfonyl)benzamide]",,,,
79%,15 nM,,653 nM,,35%,,"CC(CCCC1CCN(C(=O)[C@](O)(c2ccccc2)C(F)(F)F)CC1)Nc1ccc(C(=O)N(C)C)c(Cl)c1 (single isomer, unassigned) [Example 4-3, 2-chloro-N,N-dimethyl-4-((S or R)-5-(1-((R or S)-3,3,3-trifluoro-2-hydroxy-2-phenylpropanoyl)piperidin-4-yl)pentan-2-ylamino)benzamide]",,,,
84%,7 nM,37%,382 nM,,,,"CC(CCCC1CCN(C(=O)[C@](O)(c2cccc(Cl)c2)C(F)(F)F)CC1)Nc1ccc(C(=O)N(C)C)c(Cl)c1 (single isomer, unassigned) [Example 4-2, 2-chloro-4-((S or R)-5-(1-((R or S)-2-(3-chlorophenyl)-3,3,3-trifluoro-2-hydroxypropanoyl)piperidin-4-yl)pentan-2-ylamino)-N,N-dimethylbenzamide]",,,,
80%,29 nM,22%,797 nM,,,,"CN(C)C(=O)c1ccc(N(C)CCC2CC23CCN(C(=O)C(C)(C)c2ccccc2)CC3)cc1Cl (single isomer, unassigned) [Example 9-1, (S or R)-2-chloro-N,N-dimethyl-4-(methyl(2-(6-(2-methyl-2-phenylpropanoyl)-6-azaspiro[2.5]octan-1-yl)ethyl)amino)benzamide]",,,,
56%,8 nM,11%,472 nM,,,,"CN(C)C(=O)c1ccc(NCCC[C@H]2CC23CCN(C(=O)[C@](O)(c2ccccc2)C(F)(F)F)CC3)cc1Cl (single isomer, unassigned) [Example 6-2, 2-chloro-N,N-dimethyl-4-(3-((S or R)-6-((R or S)-3,3,3-trifluoro-2-hydroxy-2-phenylpropanoyl)-6-azaspiro[2.5]octan-1-yl)propylamino)benzamide]",,,,
108%,56 nM,50%,423 nM,,,,"CN(C)C(=O)c1ccc(CCCC2CC3(CCN(C(=O)C(C)(C)c4ccccc4)CC3)C2)cc1Cl [Example 16-3, 2-chloro-N,N-dimethyl-4-(3-(7-(2-methyl-2-phenylpropanoyl)-7-azaspiro[3.5]nonan-2-yl)propyl)benzamide]",,,,
,430 nM,,,No IP,,,"CN(C)C(=O)c1ccc(N(C)CCC2CC3(CCN(C(=O)C(C)(C)c4ccccc4)CC3)C2)nc1Cl [Example 12-1, 2-chloro-N,N-dimethyl-6-(methyl(2-(7-(2-methyl-2-phenylpropanoyl)-7-azaspiro[3.5]nonan-2-yl)ethyl)amino)nicotinamide]",34%,,5%,
,28 nM,20%,623 nM,,,95%,"CN(C)C(=O)c1ccc(CCCCC2CCN(C(=O)C(O)(c3ccccc3)C(F)(F)F)CC2)cc1Cl (single isomer, unassigned) [Example 15-2, (R or S)-2-chloro-N,N-dimethyl-4-(4-(1-(3,3,3-trifluoro-2-hydroxy-2-phenylpropanoyl)piperidin-4-yl)butyl)benzamide]",,,,
17%,3770 nM,0%,,No IP,,,"COc1cccc([C@@](O)(C(=O)N2CCC(CCCC(C)Nc3ccc(C(=O)N(C)C)c(Cl)c3)CC2)C(F)(F)F)c1 (single isomer, unassigned) [Example 4-5, 2-chloro-N,N-dimethyl-4-((R or S)-5-(1-((R or S)-3,3,3-trifluoro-2-hydroxy-2-(3-methoxyphenyl)propanoyl)piperidin-4-yl)pentan-2-ylamino)benzamide]",,,,
74%,38 nM,8%,,No IP,,,"CN(C)C(=O)c1ccc(SC2CCC3(CC2)CCN(C(=O)C(O)(c2cc(Cl)cc(Cl)c2)C(F)(F)F)CC3)cc1Cl (single isomer, unassigned) [Example 19-2, 2-chloro-4-(3-((R or S)-2-(3,5-dichlorophenyl)-3,3,3-trifluoro-2-hydroxypropanoyl)-3-azaspiro[5.5]undecan-9-ylthio)-N,N-dimethylbenzamide]",,,,
,325 nM,,,No IP,7%,59%,"CC(CCCC1CCN(C(=O)[C@](O)(c2ccccc2)C(F)(F)F)CC1)Nc1ccc(C(=O)N(C)C)c(Cl)c1 (single isomer, unassigned) [Example 4-4, 2-chloro-N,N-dimethyl-4-((R or S)-5-(1-((R or S)-3,3,3-trifluoro-2-hydroxy-2-phenylpropanoyl)piperidin-4-yl)pentan-2-ylamino)benzamide]",,,,
42%,183 nM,2%,,No IP,,,"CNC(=O)c1ccc(NCCCCC2CCN(C(=O)C3(c4ccccc4)CCCC3)CC2)cc1Cl [Example 1-4, 2-chloro-N-methyl-4-(4-(1-(1-phenylcyclopentanecarbonyl)piperidin-4-yl)butylamino)benzamide]",,,,
21%,104 nM,12%,,No IP,,,"CN(C)C(=O)c1ccc(NCCC2CCN(C(=O)OCc3ccccc3)CC2)cc1Cl [Example 1-13, benzyl 4-(2-(3-chloro-4-(dimethylcarbamoyl)phenylamino)ethyl)piperidine-1-carboxylate]",,,,

Structure (SMILES),"Emax [1, 3]",EC50 ([1]; read-out: LXR beta IP),"Emax [2, 3]",EC50 ([2]; read-out: LXR alpha IP),LXR alpha IP (nM) [2],"LXR alpha actiivty at max dose (%) [2, 3]","LXR beta actiivty at max dose (%) [1, 3]",Emax [1],EC50 ([2]; LXR alpha IP (nM)),Emax [2],EC50 ([1]; LXR beta IP (nM))
"CN(C)C(=O)c1ccc(NCCCCC2CCN(C(=O)C(O)(c3ccccc3)C(F)(F)F)CC2)nc1Cl (stereo not drawn) [Example 2-1, 2-chloro-N,N-dimethyl-6-(4-(1-(3,3,3-trifluoro-2-hydroxy-2-phenylpropanoyl)piperidin-4-yl)butylamino)nicotinamide]",,29 nM,,,,,,52%,1250 nM,25%,
"COc1cccc(C(O)(C(=O)N2CCC3(CCC(Sc4ccc(C(=O)N(C)C)c(Cl)c4)CC3)CC2)C(F)(F)F)c1 (single isomer, unassigned) [Example 19-1, 2-chloro-N,N-dimethyl-4-(3-((R or S)-3,3,3-trifluoro-2-hydroxy-2-(3-methoxyphenyl)propanoyl)-3-azaspiro[5.5]undecan-9-ylthio)benzamide]",,,23%,1060 nM,,,,101%,,,58 nM
"CC(CC1CC12CCN(C(=O)C1(c3ccccc3)CCC1)CC2)Nc1ccc(C(=O)N(C)C)c(Cl)c1 (single isomer, unassigned) [Example 5-1, 2-chloro-N,N-dimethyl-4-(1-((S or R)-6-(1-phenylcyclobutanecarbonyl)-6-azaspiro[2.5]octan-1-yl)propan-2-ylamino)benzamide]",,,56%,220 nM,,,,41%,,,5 nM
